{
  "source": "patent US20090304694A1",
  "about": "“Ang2 and Vegf Inhibitor Combinations” (AMGEN INC., priority 2006, published 2009)",
  "tested_on": "Colo205 colorectal cancer cell xenografts",
  "assay": "Colo205 xenograft tumor volume, 2xCon4(C) (2.8 μg) and Avastin™ (10 μg) (Example 7)",
  "assay_type": "in vivo, female athymic nude mice (CD1 Nu/Nu)",
  "details": "Avastin™ 10 μg IP twice per week; 2xCon4(C) 2.8 μg sc twice per week; day 14 to day 42",
  "procedure": "Xenografts of Colo205 cells injected into female athymic nude mice were treated with 2xCon4(C) alone, Avastin™, or a combination of the two as described below.\nTumors were induced by injecting Colo205 cells subcutaneously into female athymic nude mice (CD1 Nu/Nu), 8-10 weeks old. All of the mice were obtained from Charles River Laboratories (Raleigh, N.C.). Cells were harvested from subconfluent cultures using trypsin/EDTA. The cells were greater than 95% viable by […] exclusion. 2×10^6 cells in 0.2 ml were injected subcutaneously into the right flank of each mouse.\nOn day 14 after injection the tumors averaged 250 mm^3, and the mice were divided at random into four groups of 10 mice each. Group 1 received IgG1 at a dose of 10 μg and Fc fragment control at a dose of 2.8 μg and served as a negative control. Group 2 received Avastin™ at a dose of 10 μg and Fc fragment control at 2.8 μg. Group 3 received 2xCon4(C) at a dose of 2.8 μg and human IgG1 at a dose of 10 μg. […]\nThe experiment was performed “blind” in accordance with the Cancer Pharmacology Blinded Study Guidelines. Tumors were measured and body weights were determined twice each week. Tumors were measured with an electronic digital caliper. Tumor volumes were calculated as the length×width×height measurements and expressed in mm^3.\nThe data were analyzed by repeated measures ANOVA for tumor volumes over time using STATVIEW v. […]",
  "data": [
    {"substance": "Avastin™: recombinant humanized monoclonal antibody that binds directly to VEGF, sold by Genentech", "values": [
      {"measurement": "reduction / inhibition of tumor growth compared to the control", "value": 18, "unit": "%"}
    ]}
  ]
}
